Laboratory results as given in patent US8586611B2 (priority 2005, dated 2013).
Read-outs that look alike come from different tables or passages of the source.

Assays:
Format in all cases: in vivo
Phytophthora infestans [1] = test: whole plant or invertebrate; details: for Test C disease rating (100 = 100% disease control, 0 = no disease control): tomato late blight; for pest or weed control at 40 ppm: Phytophthora infestans, in Solanum lycopersicum, 144 h, read-out: Test C disease rating (100 = 100% disease control, 0 = no disease control)
Phytophthora infestans [2] = test: whole plant or invertebrate; details: for Test D disease rating (100 = 100% disease control, 0 = no disease control): tomato late blight; for pest or weed control at 40 ppm: Phytophthora infestans, in Solanum lycopersicum, topical, 96 h, read-out: Test D disease rating (100 = 100% disease control, 0 = no disease control)
[3] = system: Erysiphe graminis f. sp. tritici; test: Test E: wheat powdery mildew, spray the day before inoculation (disease rating, 100 = 100% disease control); details: for pest or weed control at 40 ppm: Blumeria graminis, topical, 168 h, read-out: Test E disease rating (100 = 100% disease control, 0 = no disease control)
Description: (§1) The test compounds were first dissolved in acetone in an amount equal to 3% of the final volume and then suspended at the desired concentration (in ppm) in acetone and purified water (50/50 mix by volume) containing 250 ppm of the surfactant Trem® 014 (polyhydric alcohol esters). The resulting test suspensions were then used in tests A-E. Spraying a 200 ppm test suspension to the point of run-off on the test plants was the equivalent of a rate of 500 g/ha.
The test suspension was sprayed to the point of run-off on wheat seedlings. The following day the seedlings were inoculated with a spore dust of Erysiphe graminis f. sp. tritici, (the causal agent of wheat powdery mildew) and incubated in a growth chamber at 20° C. for 7 days, after which disease ratings were made.
(§2) Results for Tests A-F are given in Table A. In the table, a rating of 100 indicates 100% disease control and a rating of 0 indicates no disease control (relative to the controls). A dash (-) indicates no test results.

Plasmopara viticola = test: Test B: grape downy mildew, spray 24 h after inoculation (disease rating, 100 = 100% disease control); details: for pest or weed control at 40 ppm: Plasmopara viticola, 144 h, read-out: Test B disease rating (100 = 100% disease control, 0 = no disease control)
Description: as §1
Grape seedlings were inoculated with a spore suspension of Plasmopara viticola (the causal agent of grape downy mildew) and incubated in a saturated atmosphere at 20° C. for 24 h. After a short drying period, the test suspension was sprayed to the point of run-off on the grape seedlings and then moved to a growth chamber at 20° C. for 5 days, after which the test units were placed back into a saturated atmosphere at 20° C. for 24 h. Upon removal, disease ratings were made.
as §2

[4] = spray the day before inoculation, compounds without asterisk (not 40 or 10 ppm)
[5] = spray 24 h after inoculation, compounds without asterisk (not 40 or 10 ppm)
[6] = spray the day before inoculation, tested at 40 ppm
[7] = spray 24 h after inoculation, tested at 40 ppm

SMILES	Test C disease rating (100 = 100% disease control, 0 = no disease control) (Phytophthora infestans [1]; [4]) [%]	Test E disease rating (100 = 100% disease control, 0 = no disease control) [3, 4] [%]	Test B disease rating (100 = 100% disease control, 0 = no disease control) (Plasmopara viticola; [5]) [%]	other results
Cc1cc(C(F)(F)F)nn1CC(=O)N1CCC(c2nc(C(=O)N(C)C3CCC(C)c4ccccc43)cs2)CC1 (mixture of isomers) [compound 192]	100	0	97	Test D disease rating (100 = 100% disease control, 0 = no disease control) (Phytophthora infestans [2]; spray 17 h after inoculation, compounds without asterisk (not 40 or 10 ppm)): 99%
Cc1cc(C(F)(F)F)nn1CC(=O)N1CCC(c2nc(C(=O)N(C)C3CCCC4CCCCC43)cs2)CC1 (mixture of isomers) [compound 254]				Test C disease rating (100 = 100% disease control, 0 = no disease control) (Phytophthora infestans [1]; sprayed the day before inoculation, unmarked compounds (no asterisk, not 40 or 10 ppm)): 99; Test D disease rating (100 = 100% disease control, 0 = no disease control) (Phytophthora infestans [2]; sprayed 17 h after inoculation, unmarked compounds (no asterisk, not 40 or 10 ppm)): 99; Test E disease rating (100 = 100% disease control, 0 = no disease control) ([3]; sprayed the day before inoculation, 7 days at 20° C., unmarked compounds (no asterisk, not 40 or 10 ppm)): 0; Test B disease rating (100 = 100% disease control, 0 = no disease control) (Plasmopara viticola; sprayed 24 h after inoculation, unmarked compounds (no asterisk, not 40 or 10 ppm)): 95
Cc1cc(C(F)(F)F)nn1CC(=O)N1CCC(c2nc(C(=O)N(C)[C@@H]3CC[C@@H](O)c4ccccc43)cs2)CC1 (racemic) [Compound 206, N-methyl-2-[1-[[5-methyl-3-(trifluoromethyl)-1H-pyrazol-1-yl]acetyl]-4-piperidinyl]-N-[(1R,4R)-1,2,3,4-tetrahydro-4-hydroxy-1-naphthalenyl]-4-thiazolecarboxamide]				pest or weed control at 40 ppm (Phytophthora infestans [1]): 100%; pest or weed control at 40 ppm (Phytophthora infestans [2]): 99%; pest or weed control at 40 ppm [3, 6]: 0%; pest or weed control at 40 ppm (Plasmopara viticola; [7]): 99%
Cc1cc(C(F)(F)F)nn1CC(=O)N1CCC(c2nc(C(=O)N(C)C3c4ccccc4CC3O)cs2)CC1 (racemic) [compound 200]				Test C disease rating (100 = 100% disease control, 0 = no disease control) (Phytophthora infestans [1]; [6]): 98%; Test D disease rating (100 = 100% disease control, 0 = no disease control) (Phytophthora infestans [2]; spray 17 h after inoculation, tested at 40 ppm): 98%; Test E disease rating (100 = 100% disease control, 0 = no disease control) [3, 6]: 0%; Test B disease rating (100 = 100% disease control, 0 = no disease control) (Plasmopara viticola; [7]): 39%
Cc1cc(C(F)(F)F)nn1CC(=O)N1CCC(c2nc(C(=O)N(C)[C@@H]3CCCc4ccccc43)co2)CC1 [Compound 151, N-methyl-2-[1-[[5-methyl-3-(trifluoromethyl)-1H-pyrazol-1-yl]acetyl]-4-piperidinyl]-N-[(1R)-1,2,3,4-tetrahydro-1-naphthalenyl]-4-oxazolecarboxamide]				pest or weed control at 40 ppm (Phytophthora infestans [1]): 100%; pest or weed control at 40 ppm (Phytophthora infestans [2]): 99%; pest or weed control at 40 ppm [3, 6]: 0%; pest or weed control at 40 ppm (Plasmopara viticola; [7]): 99%
Cc1ccc(C)c(CC(=O)N2CCC(c3nc(C(=O)N(C)C(C#N)c4ccccc4)cs3)CC2)c1 (centres unmarked) [compound 102]	99	0	100	
C=CC(c1ccccc1)N(C)C(=O)c1csc(C2CCN(C(=O)Cc3cc(C)ccc3C)CC2)n1 (centres unmarked) [compound 103]	71	79	100	
C=CCC(c1ccccc1)N(C)C(=O)c1csc(C2CCN(C(=O)Cc3cc(C)ccc3C)CC2)n1 (centres unmarked) [compound 104]	87	0	100	
Cc1ccc(C)c(CC(=O)N2CCC(c3nc(C(=O)N(C)[C@H](C)c4cccc5ccccc45)cs3)CC2)c1 [compound 105]	100	0	96	
Cc1ccc(C)c(CC(=O)N2CCC(c3nc(C(=O)N(C)[C@H](C)c4ccc5ccccc5c4)cs3)CC2)c1 [compound 106]	24	0	0	
CC[C@H](c1ccccc1)N(C)C(=O)c1csc(C2CCN(C(=O)Cc3cccc(Br)c3)CC2)n1 [compound 107]	100	0	99	
CC[C@H](c1ccccc1)N(C)C(=O)c1csc(C2CCN(C(=O)Cc3cccc(C(F)(F)F)c3)CC2)n1 [compound 108]	100	0	99	
